Laboratory results: patent publication US10793576B2, “Compound used as Bruton's tyrosine kinase inhibitor and preparation method and application thereof” (Chengdu Brilliant Pharmaceutical Co., LTD., priority 2017, dated 2020)

Tests used:
DOHH2 cells = assay: Cell proliferation inhibition in vitro, DOHH2 cells by CTG assay; type: cell-based; conditions: Homo sapiens, DOHH-2, 72 hours, read-out: Inhibitions of cell activities IC50 (nM) DOHH2
BTK kinase = BTK kinase (Homo sapiens (Human), UniProt Q06187); assay: In vitro assay for the inhibition of BTK kinase activity (Mobility-Shift Assay); type: biochemical
Outline: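 Fluorescently labelled peptide substrate converted by the kinase; substrate and phosphorylated product separated by charge on a microfluidic chip (mobility shift) and quantified separately. Results expressed as conversion rate; control wells received 100% DMSO.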

[1] = Pharmacokinetic test in SD rats (oral 10 mg/kg, intravenous 1 mg/kg); type: in vivo; conditions: SD rat; for F (po) %: oral 10 mg/kg vs intravenous 1 mg/kg; for clearance / half-life / AUC / Cmax / Tmax: male, plasma; for clearance / half-life: intravenous 1 mg/kg; for clearance: read-out: Cl (iv) (converted); for half-life: read-out: T½ (iv) h (converted); for AUC / Cmax / Tmax: oral 10 mg/kg
Description: SD rat, male (purchased from Shanghai Sippr-Bk Laboratory Animal Co., Ltd.), each tested compound was administered at a single dose to SD rats by oral administration (10 mg/kg, 3 rats in each group) and intravenous administration (1 mg/kg, 3 rats in each group) for the pharmacokinetic study. The tested compounds were dissolved using DMSO/[…] sodium chloride injection=5/95 (V/V), and vortexed for 1 minute, and after 1 minute of sonication, the compounds were formulated into solutions for administrations. Animals were fasted for 16-17 hours prior to oral administration and feeding was restored 4 hours after administration. After oral and intravenous administration, pharmacokinetic samples were collected from SD rats by jugular vein or cardiac puncture at the following time points: before administration, 5 minute, 15 minute, 30 minute, 1 hour, 2 hours, 4 hours, 6 hours, 8 hours and 24 hours after administration. 3 whole blood samples were collected at each time point, and the collected amount was about 0.2 mL, and the collected samples were anticoagulated by heparin sodium. After collection, the blood samples were immediately placed on ice and centrifuged to separate plasma within 30 minutes (centrifugation conditions: 8000 rpm, 6 minute, 2-8° C.). The collected plasma was stored at −70° C. prior to analysis. 50 μL of plasma sample was brought into a 1.5 mL centrifuge tube, 250 μL of internal standard solution (blank with no internal standard but the same volume of methanol added) was added, blended with vortex, centrifuged at 15000 rpm for 5 minutes. 200 μL of supernatant was taken and added to a 96-well sample plate and the samples were analyzed by LC-MS/MS.

hERG potassium channel = hERG potassium channel (Homo sapiens (Human), UniProt Q12809); assay: hERG experiment to investigate potential cardiotoxicity (manual patch clamp, CHO hERG cells); type: cell-based; conditions: whole cell patch clamp, tail current
Description: CHO hERG cells were grown in a culture dish containing the above medium, and cultured in an incubator at 37° C. and 5% CO2. CHO hERG cells were transferred to circular glass slides placed in the culture dish 24-48 hours prior to electrophysiological experiments and grown under the same medium and culture conditions as above. The density of CHO hERG cells on each circular slide shall meet the requirement that most of the cells are independent and individual.
2: Preparation of Experimental Solutions
3: Electrophysiological Recording System
A manual patch clamp system (HEKA EPC-10 signal amplifier and digital conversion system, purchased from HEKA Electronics, Germany) is used in this experiment for whole cell currents recording. A circular slide with CHO hERG cells grown on its surface was placed in an electrophysiology recording tank under an inverted microscope. The extracellular fluid was continuously perfused in the recording tank (about 1 ml per minute). A conventional whole cell patch clamp current recording technique was used in the experimental procedure. Unless otherwise specified, the experiments were carried out at conventional room temperature (about 25° C.). The cells were clamped at a voltage of −80 mV. The clamp voltage for cells was depolarized to +20 mV to activate the hERG potassium channel, and after 5 seconds, the cells were clamped to −50 mV to eliminate inactivation and generate a tail current. The tail current peak was used as the value of the hERG current magnitude. After the hERG potassium current recorded in the above step was stable under the continuous extracellular fluid perfusion in the recording tank, the drug to be tested can be perfused simultaneously and filled until the inhibitory effect of the drug on the hERG current reached a steady state. Generally, the superposition of the last three consecutive current recording lines was used as a criterion for judging whether or not the state was stable. After reaching a steady state, a wash with extracellular fluid perfusion was conducted until the hERG returned to that before the drug was added. One cell can be used to test one or more drugs, or multiple concentrations of the same drug, but need to be washed with an extracellular fluid between different drugs. Cisapride (purchased from Sigma) was used as a positive control in the experiment to ensure that the cells used were of normal quality.
4: Treatment and Dilution of Compounds
Prior to testing, the compounds were first diluted to 10, 3, 1, 0.3, and 0.1 mM stock solutions by a method of gradual dilution with DMSO, and were then diluted to the final M test concentration with extracellular fluids. The final concentration of DMSO in each of the other compound solutions was 0.1%, except that the DMSO concentration in the 30 μM compound test solution was 0.3%. The test concentration of the positive control (Cisapride) was 0.1 μM. All compound solutions were sonicated and shaken for a routine of 5 to 10 minutes to ensure complete dissolution of the compounds.
The test data were analyzed by HEKA Patchmaster, Microsoft Excel and data analysis software provided by Graphpad Prism.

OCI-LY10 cells = assay: Cell proliferation inhibition in vitro, OCI-ly10 cells by CCK-8 method; type: cell-based; conditions: Homo sapiens, 72 hours, read-out: Inhibitions of cell activities IC50 (nM) OCI-LY10
TMD8 cells = assay: Cell proliferation inhibition in vitro, TMD8 cells by CCK-8 method; type: cell-based; conditions: Homo sapiens, 72 hours, read-out: Inhibitions of cell activities IC50 (nM) TMD8

Chain of hERG potassium channel (Q12809 whole entry): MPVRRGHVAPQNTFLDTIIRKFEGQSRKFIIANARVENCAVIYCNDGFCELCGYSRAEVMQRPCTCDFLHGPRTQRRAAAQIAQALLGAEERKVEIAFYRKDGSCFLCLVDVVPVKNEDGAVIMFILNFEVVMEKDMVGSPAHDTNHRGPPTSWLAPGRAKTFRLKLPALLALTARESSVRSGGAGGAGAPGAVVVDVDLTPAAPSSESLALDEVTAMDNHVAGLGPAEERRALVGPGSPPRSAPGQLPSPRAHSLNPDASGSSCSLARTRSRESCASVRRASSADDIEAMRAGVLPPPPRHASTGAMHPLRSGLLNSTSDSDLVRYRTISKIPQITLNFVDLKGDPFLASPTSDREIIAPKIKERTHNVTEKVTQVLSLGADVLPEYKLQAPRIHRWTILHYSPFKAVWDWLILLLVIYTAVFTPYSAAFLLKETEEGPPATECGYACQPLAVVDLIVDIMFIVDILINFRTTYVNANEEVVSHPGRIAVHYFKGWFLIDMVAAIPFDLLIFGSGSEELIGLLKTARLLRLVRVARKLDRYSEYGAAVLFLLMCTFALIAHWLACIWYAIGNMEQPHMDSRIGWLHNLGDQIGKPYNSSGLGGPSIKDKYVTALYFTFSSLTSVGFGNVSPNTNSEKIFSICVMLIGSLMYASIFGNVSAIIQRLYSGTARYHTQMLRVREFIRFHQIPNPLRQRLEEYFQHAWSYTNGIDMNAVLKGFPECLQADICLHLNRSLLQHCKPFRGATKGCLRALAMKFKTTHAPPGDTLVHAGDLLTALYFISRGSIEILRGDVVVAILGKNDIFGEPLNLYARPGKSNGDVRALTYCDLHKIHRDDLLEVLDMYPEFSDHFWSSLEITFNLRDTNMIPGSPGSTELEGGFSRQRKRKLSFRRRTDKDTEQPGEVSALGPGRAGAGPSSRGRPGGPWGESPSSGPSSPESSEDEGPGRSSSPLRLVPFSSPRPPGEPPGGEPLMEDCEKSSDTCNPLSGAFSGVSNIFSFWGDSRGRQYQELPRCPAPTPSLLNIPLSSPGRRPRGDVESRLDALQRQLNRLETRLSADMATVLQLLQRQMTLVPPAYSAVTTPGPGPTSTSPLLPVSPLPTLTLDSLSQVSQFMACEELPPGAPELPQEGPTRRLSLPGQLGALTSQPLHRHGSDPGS
Chain of BTK kinase (Q06187 whole entry): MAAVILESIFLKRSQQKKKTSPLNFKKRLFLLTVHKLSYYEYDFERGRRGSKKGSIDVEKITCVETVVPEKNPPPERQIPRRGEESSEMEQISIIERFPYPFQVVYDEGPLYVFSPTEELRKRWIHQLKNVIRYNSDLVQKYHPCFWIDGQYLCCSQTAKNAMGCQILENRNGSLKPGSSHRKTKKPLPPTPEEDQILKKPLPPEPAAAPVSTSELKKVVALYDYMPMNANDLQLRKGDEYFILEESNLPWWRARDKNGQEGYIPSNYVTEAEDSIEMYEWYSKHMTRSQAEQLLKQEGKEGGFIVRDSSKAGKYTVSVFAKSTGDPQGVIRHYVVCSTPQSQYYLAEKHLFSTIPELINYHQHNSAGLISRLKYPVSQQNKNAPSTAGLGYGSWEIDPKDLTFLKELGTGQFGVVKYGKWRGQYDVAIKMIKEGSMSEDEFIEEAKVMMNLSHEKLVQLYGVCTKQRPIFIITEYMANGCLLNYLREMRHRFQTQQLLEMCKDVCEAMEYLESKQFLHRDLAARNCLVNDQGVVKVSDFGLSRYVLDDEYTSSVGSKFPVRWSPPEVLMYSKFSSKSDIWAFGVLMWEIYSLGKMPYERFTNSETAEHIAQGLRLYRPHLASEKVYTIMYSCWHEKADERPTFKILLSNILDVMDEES

Row | SMILES | IC50 (BTK kinase) [nM] | F (po) % [1] [%] | clearance [1] [mL/min/kg] | half-life [1] [min] | AUC [1] [ng·h/mL] | Cmax [1] [ng/mL] | Tmax [1] [min] | IC50 (OCI-LY10 cells) [nM] | IC50 (DOHH2 cells) [nM] | IC50 (hERG potassium channel) [nM] | IC50 (TMD8 cells) [nM]
1 | C=CC(=O)N1C2CCC1(c1nc(-c3ccc(C(=O)Nc4ccccn4)cc3)c3c(N)nccn13)COC2 (stereo not drawn) [Example 11] | 2.6 | 34.59 | 36.5 | 28.2 | 1580 | 1610 | 19.8 | 1.8 | 133 | > 30000 | 1.5
2 | C=CC(=O)N1[C@@H]2CC[C@@H](C2)[C@H]1c1nc(-c2ccc(C(=O)Nc3ccccn3)cc2)c2c(N)nccn12 [Example 22, 4-(3-((1R,3S,4S)-2-acryloyl-2-azabicyclo[2.2.1]heptan-3-yl)-8-aminoimidazo[1,5-a]pyrazin-1-yl)-N-(pyridin-2-yl)benzamide] | 3.3 | 36.56 | 58.5 | 36 | 1040 | 1160 | 15 | 0.38 | 182 | > 30000 | 4.2
3 | CC#CC(=O)N1C2CC[C@@H](C2)C1c1nc(-c2ccc(C(=O)Nc3cc(C(F)(F)F)ccn3)cc2)c2c(N)nccn12 (stereo partly drawn) [Example 47] | 5.2 | 21.89 | 38 | 18 | 971 | 1120 | 15 | 0.41 | 172 | > 30000 | 4.6
4 | C=CC(=O)N1CC2CCCC2[C@H]1c1nc(-c2ccc(Oc3ccccc3)cc2)c2c(N)nccn12 (stereo partly drawn) [Example 96] | – | – | – | – | – | – | – | – | – | > 30000 | –

Continued by falling IC50 (OCI-LY10 cells), values first:

Row | IC50 (BTK kinase) [nM] | F (po) % [1] [%] | clearance [1] [mL/min/kg] | half-life [1] [min] | AUC [1] [ng·h/mL] | Cmax [1] [ng/mL] | Tmax [1] [min] | IC50 (OCI-LY10 cells) [nM] | SMILES | IC50 (DOHH2 cells) [nM] | IC50 (hERG potassium channel) [nM] | IC50 (TMD8 cells) [nM]
5 | 3.1 | 34.53 | 32.7 | 33 | 1580 | 1590 | 21.6 | 0.34 | C=CC(=O)N1CC2CCCC2C1c1nc(-c2ccc(Oc3ccccc3)cc2)c2c(N)nccn12 (stereo not drawn) [Example 96] | 200 | – | 3.2
6 | 1.4 | – | – | – | – | – | – | 0.25 | C=CC(=O)N1C2C[C@@H](C1c1nc(-c3ccc(C(=O)Nc4ccccn4)cc3)c3c(N)nccn13)N(C(C)=O)C2 (stereo partly drawn) [Example 18] | 177 | > 30000 | 1.6
7 | – | 52.55 | 57 | 37.2 | 1490 | 1620 | 16.2 | 0.24 | C=CC(=O)N1CC2CCCC2C1c1nc(-c2ccc(C(=O)Nc3ccccn3)cc2)c2c(N)nccn12 (stereo not drawn) [Example 3] | 191 | > 30000 | 0.26
8 | 21 | 20.64 | 121 | 7.8 | 278 | 303 | 6 | 0.21 | C=CC(=O)N1C[C@H]2[C@@H]([C@H]1c1nc(-c3ccc(C(=O)Nc4ccccn4)cc3)c3c(N)nccn13)C2(C)C [Example 5] | 175 | > 30000 | 3.6
9 | 4.9 | 27.12 | 57.5 | 31.2 | 770 | 1110 | 12.6 | 0.13 | C=CC(=O)N1C2CC[C@@H](C2)C1c1nc(-c2ccc(C(C)(O)c3ccccc3)cc2)c2c(N)nccn12 (stereo partly drawn) [Example 79] | 164 | > 30000 | 1.2
